This is an account of results in patent US9695180B2 (Incyte Corporation, priority 2014, dated 2017).

In this test the target is LSD-1 enzyme (Homo sapiens (Human), UniProt O60341). The test can be described thus: LANCE LSD1/KDM1A demethylase assay (LSD1 histone demethylase biochemical assay). The procedure: Example A: LSD1 Histone Demethylase Biochemical Assay
LANCE LSD1/KDM1A demethylase assay—10 μL of 1 nM LSD-1 enzyme (ENZO BML-SE544-0050) in the assay buffer (50 mM Tris, pH 7.5, 0.01% Tween-20, 25 mM NaCl, 5 mM DTT) were preincubated for 1 hour at 25° C. with 0.8 μL compound/DMSO dotted in black 384 well polystyrene plates. […] Reactions were stopped by addition of 10 μL 1× LANCE Detection Buffer (PerkinElmer CR97-100) supplemented with 1.5 nM Eu-anti-unmodified H3K4 Antibody (PerkinElmer TRF0404), and 225 nM LANCE Ultra Streptavidin (PerkinElmer TRF102) along with 0.9 mM Tranylcypromine-HCl (Millipore 616431). After stopping the reactions plates were incubated for 30 minutes and read on a PHERAstar FS plate reader (BMG Labtech).
A general note: Time-resolved FRET reads energy transfer from a long-lived donor to a nearby acceptor.

Molecules are shown by their SMILES.

The term IC50 denotes the concentration that gives 50% inhibition. Higher therefore signals weaker potency in that assay. Turning to `CN1CCC[C@@H](COc2nc(-c3ccc(C#N)cc3)c(-c3cnc4c(cnn4C)c3)n3ccnc23)C1` [Example 54, 4-[8-{[(3R)-1-methylpiperidin-3-yl]methoxy}-5-(1-methyl-1H-pyrazolo[3,4-b]pyridin-5-yl)imidazo[1,2-a]pyrazin-6-yl]benzonitrile], the IC50 was in the range of 50 to 500 nM. In the case of `Cc1ccc(-c2c(-c3ccc(C#N)cc3)nc(NCCC3CCCN3C)c3nccn23)cc1` (centres unmarked) [Example 16, 4-(5-(4-methylphenyl)-8-{[2-(1-methylpyrrolidin-2-yl)ethyl]amino}imidazo[1,2-a]pyrazin-6-yl)benzonitrile] it was 50 to 500 nM; in that of `Cc1ccc(-c2c(-c3ccc(C#N)cc3)nc(NCCc3csc(N)n3)c3nccn23)cc1` [Example 23, 4-[8-{[2-(2-amino-1,3-thiazol-4-yl)ethyl]amino}-5-(4-methylphenyl)imidazo[1,2-a]pyrazin-6-yl]benzonitrile], 50 to 500 nM. Turning to `CCN1CCC[C@@H](COc2nc(-c3ccc(C#N)cc3)c(-c3ccc4c(c3)oc(=O)n4C)n3ccnc23)C1` [Example 63, 4-[8-{[(3R)-1-ethylpiperidin-3-yl]methoxy}-5-(3-methyl-2-oxo-2,3-dihydro-1,3-benzoxazol-6-yl)imidazo[1,2-a]pyrazin-6-yl]benzonitrile], the IC50 is 50 to 500 nM. In the case of `CN1CCC[C@@H](COc2nc(-c3ccc(C#N)cc3)c(-c3ccc(CN4CCOCC4)c(F)c3)n3ccnc23)C1` [Example 82, 4-(5-[3-fluoro-4-(morpholin-4-ylmethyl)phenyl]-8-{[(3R)-1-methylpiperidin-3-yl]methoxy}imidazo[1,2-a]pyrazin-6-yl)benzonitrile], the IC50 was 50 to 500 nM. In the case of `Cc1ccc(-c2cn3c(-c4ccc(C)cc4)c(-c4ccc(C#N)cc4)nc(OC[C@@H]4CCNC4)c3n2)cc1` [Example 35, 4-{2,5-bis(4-methylphenyl)-8-[(3R)-pyrrolidin-3-ylmethoxy]imidazo[1,2-a]pyrazin-6-yl}benzonitrile], the IC50 is 50 to 500 nM.

`Cc1ncc(-c2c(-c3ccc(C#N)cc3)nc(OC[C@@H]3CCCN(C)C3)c3nccn23)cc1C#N` [Example 117, 5-(6-(4-cyanophenyl)-8-{[(3R)-1-methylpiperidin-3-yl]methoxy}imidazo[1,2-a]pyrazin-5-yl)-2-methylnicotinonitrile] had an IC50 of 50 to 500 nM.

`Cc1ccc(-c2c(-c3ccc(C#N)cc3)nc(OC[C@@H]3CCNC3)c3nc(C(F)(F)F)cn23)cc1` [Example 34, 4-[5-(4-methylphenyl)-8-[(3R)-pyrrolidin-3-ylmethoxy]-2-(trifluoromethyl)imidazo[1,2-a]pyrazin-6-yl]benzonitrile]: the IC50 lay within 50 to 500 nM.

`CN(C)[C@H]1CCN(c2nc(-c3ccc(C#N)cc3)c(-c3ccc(N4CCCC4=O)nc3)n3ccnc23)C1` [Example 104, 4-{8-[(3S)-3-(dimethylamino)pyrrolidin-1-yl]-5-[6-(2-oxopyrrolidin-1-yl)pyridin-3-yl]imidazo[1,2-a]pyrazin-6-yl}benzonitrile] had an IC50 of 50 to 500 nM. To `CN1CC[C@@H](COc2nc(-c3ccc(C#N)cc3)c(-c3ccc(N(C)C)nc3)n3ccnc23)C1` [Example 32, 4-(5-[6-(dimethylamino)pyridin-3-yl]-8-{[(3R)-1-methylpyrrolidin-3-yl]methoxy}imidazo[1,2-a]pyrazin-6-yl)benzonitrile] belongs 50 to 500 nM; to `Cc1ccc(-c2c(-c3ccc(C#N)cc3)nc(C(=O)NC3CN(C)C3)c3nccn23)cc1` [Example 25, 6-(4-cyanophenyl)-N-(1-methylazetidin-3-yl)-5-(4-methylphenyl)imidazo[1,2-a]pyrazine-8-carboxamide], 50 to 500 nM.

In turn, `CN(C)c1ncc(-c2c(-c3ccc(C#N)cc3)nc(OC[C@@H]3CCNC3)c3nccn23)cn1` [Example 31, 4-{5-[2-(dimethylamino)pyrimidin-5-yl]-8-[(3R)-pyrrolidin-3-ylmethoxy]imidazo[1,2-a]pyrazin-6-yl}benzonitrile] came in with an IC50 of 50 to 500 nM. In the case of `CN(C)[C@H]1CCN(Cc2nc(-c3ccc(C#N)cc3)c(-c3ccc(N4CCCC4=O)nc3)n3ccnc23)C1` [Example 56, 4-{8-{[(3S)-3-(dimethylamino)pyrrolidin-1-yl]methyl}-5-[6-(2-oxopyrrolidin-1-yl)pyridin-3-yl]imidazo[1,2-a]pyrazin-6-yl}benzonitrile], the IC50 was 50 to 500 nM. In the case of `CN1CCC[C@@H](COc2nc(-c3ccc(C#N)cc3)c(-c3cc(F)c(CO)c(F)c3)n3ccnc23)C1` [Example 83, 4-(5-[3,5-difluoro-4-(hydroxymethyl)phenyl]-8-{[(3R)-1-methylpiperidin-3-yl]methoxy}imidazo[1,2-a]pyrazin-6-yl)benzonitrile] it was 50 to 500 nM; in that of `CN1CCC[C@@H](COc2nc(-c3ccc(C#N)cc3)c(-c3ccc(CO)cc3)n3ccnc23)C1` [Example 74, 4-(5-[4-(hydroxymethyl)phenyl]-8-{[(3R)-1-methylpiperidin-3-yl]methoxy}imidazo[1,2-a]pyrazin-6-yl)benzonitrile], 50 to 500 nM.

As to `N#Cc1ccc(-c2nc(OC[C@@H]3CCNC3)c3nccn3c2-c2ccc(Cl)cc2)cc1` [Example 27, 4-{5-(4-chlorophenyl)-8-[(3R)-pyrrolidin-3-ylmethoxy]imidazo[1,2-a]pyrazin-6-yl}benzonitrile], the 50% inhibitory concentration (IC50) is 50 to 500 nM. In the case of `CN1CCC[C@@H](COc2nc(-c3ccc(C#N)cc3)c(-c3ccc(N4CCCC4=O)nc3)n3ccnc23)C1` [Example 48, 4-{8-{[(3R)-1-methylpiperidin-3-yl]methoxy}-5-[6-(2-oxopyrrolidin-1-yl)pyridin-3-yl]imidazo[1,2-a]pyrazin-6-yl}benzonitrile] it was 50 to 500 nM; in that of `CN1CCC[C@@H](COc2nc(-c3ccc(C#N)cc3)c(-c3ccc4c(c3)OCC(=O)N4C)n3ccnc23)C1` [Example 49, 4-(5-(4-methyl-3-oxo-3,4-dihydro-2H-1,4-benzoxazin-7-yl)-8-{[(3R)-1-methylpiperidin-3-yl]methoxy}imidazo[1,2-a]pyrazin-6-yl)benzonitrile], 50 to 500 nM. `Cc1ccc(-c2c(-c3ccc(C#N)cc3)nc(N(C)C(=O)N3CC[C@H](N(C)C)C3)c3nccn23)cc1` [Example 22, (3S)—N-[6-(4-cyanophenyl)-5-(4-methylphenyl)imidazo[1,2-a]pyrazin-8-yl]-3-(dimethylamino)-N-methylpyrrolidine-1-carboxamide] displayed a half-inhibitory concentration (IC50) of 500 to 1000 nM. For the molecule `COC(=O)N(C)c1ccc(-c2c(-c3ccc(C#N)cc3)nc(OC[C@@H]3CCCN(C)C3)c3nccn23)cc1` [Example 77], the IC50 lay in the range of 50 to 500 nM. On to `CN1C(=O)CCc2ccc(-c3c(-c4ccc(C#N)cc4)nc(N4CCC(N(C)C)CC4)c4nccn34)cc21` [Example 108, 4-[8-[4-(dimethylamino)piperidin-1-yl]-5-(1-methyl-2-oxo-1,2,3,4-tetrahydroquinolin-7-yl)imidazo[1,2-a]pyrazin-6-yl]benzonitrile], for which the IC50 was 50 to 500 nM.

In the case of `Cc1ccc(-c2c(-c3ccc(C#N)cc3)nc(N(C)C(=O)N3CC[C@@H](N(C)C)C3)c3nccn23)cc1` [Example 21, (3R)—N-[6-(4-cyanophenyl)-5-(4-methylphenyl)imidazo[1,2-a]pyrazin-8-yl]-3-(dimethylamino)-N-methylpyrrolidine-1-carboxamide], the IC50 fell in the range of 50 to 500 nM. `Cc1cc(-c2c(-c3ccc(C#N)cc3)nc(OC[C@@H]3CCCN(C)C3)c3nccn23)ccc1C(C)O` (stereo partly drawn) [Example 86, 4-(5-[4-(1-hydroxyethyl)-3-methylphenyl]-8-{[(3R)-1-methylpiperidin-3-yl]methoxy}imidazo[1,2-a]pyrazin-6-yl)benzonitrile] gave an IC50 of 50 to 500 nM.

Turning to `COc1ncc(-c2c(-c3ccc(C#N)cc3)nc(OC[C@@H]3CCCN(C)C3)c3nccn23)cc1F` [Example 84, 4-(5-(5-fluoro-6-methoxypyridin-3-yl)-8-{[(3R)-1-methylpiperidin-3-yl]methoxy}imidazo[1,2-a]pyrazin-6-yl)benzonitrile], the IC50 is 50 to 500 nM. To `COc1cc(-c2c(-c3ccc(C#N)cc3)nc(N3CCC(N(C)C)CC3)c3nccn23)cnc1C` [Example 116, 4-[8-[4-(dimethylamino)piperidin-1-yl]-5-(5-methoxy-6-methylpyridin-3-yl)imidazo[1,2-a]pyrazin-6-yl]benzonitrile] belongs 50 to 500 nM; to `CCN1CCC[C@@H](COc2nc(-c3ccc(C#N)cc3)c(-c3cnc4c(ccn4C)c3)n3ccnc23)C1` [Example 61, 4-[8-{[(3R)-1-ethylpiperidin-3-yl]methoxy}-5-(1-methyl-1H-pyrrolo[2,3-b]pyridin-5-yl)imidazo[1,2-a]pyrazin-6-yl]benzonitrile], 50 to 500 nM; to `Cc1ccc(-c2c(-c3ccc(C#N)cc3)nc(OCCCN(C)C)c3nccn23)cc1` [Example 8, 4-[8-[3-(dimethylamino)propoxy]-5-(4-methylphenyl)imidazo[1,2-a]pyrazin-6-yl]benzonitrile], 50 to 500 nM. `Cc1ccc(-c2c(-c3ccc(C#N)cc3)nc(NC3CCN(C)CC3)c3nccn23)cc1` [Example 17, 4-{5-(4-methylphenyl)-8-[(1-methylpiperidin-4-yl)amino]imidazo[1,2-a]pyrazin-6-yl}benzonitrile] displayed an IC50 of 50 to 500 nM. To `CN1CCC[C@@H](COc2nc(-c3ccc(C#N)cc3)c(-c3ccc(CN4CCOCC4)cc3)n3ccnc23)C1` [Example 75, 4-{8-{[(3R)-1-methylpiperidin-3-yl]methoxy}-5-[4-(morpholin-4-ylmethyl)phenyl]imidazo[1,2-a]pyrazin-6-yl}benzonitrile] belongs 50 to 500 nM.
